From ChEMBL document CHEMBL2073946, “Role of organic anion transporter OATP1B1 (OATP-C) in hepatic uptake of irinotecan and its active metabolite, 7-ethyl-10-hydroxycamptothecin: in vitro evidence and effect of single nucleotide polymorphisms” (Drug Metab Dispos, 2005)

Experiments:
Type in all cases: functional, cell-based
[1] = biological target: T1, Solute carrier organic anion transporter family member 1B1 (Homo sapiens, UniProt Q9Y6L6); assay: TP_TRANSPORTER: uptake of SN-38 at a concentration of 0.16uL/oocyte in Xenopus laevis oocytes
T1 sequence (Q9Y6L6 whole entry): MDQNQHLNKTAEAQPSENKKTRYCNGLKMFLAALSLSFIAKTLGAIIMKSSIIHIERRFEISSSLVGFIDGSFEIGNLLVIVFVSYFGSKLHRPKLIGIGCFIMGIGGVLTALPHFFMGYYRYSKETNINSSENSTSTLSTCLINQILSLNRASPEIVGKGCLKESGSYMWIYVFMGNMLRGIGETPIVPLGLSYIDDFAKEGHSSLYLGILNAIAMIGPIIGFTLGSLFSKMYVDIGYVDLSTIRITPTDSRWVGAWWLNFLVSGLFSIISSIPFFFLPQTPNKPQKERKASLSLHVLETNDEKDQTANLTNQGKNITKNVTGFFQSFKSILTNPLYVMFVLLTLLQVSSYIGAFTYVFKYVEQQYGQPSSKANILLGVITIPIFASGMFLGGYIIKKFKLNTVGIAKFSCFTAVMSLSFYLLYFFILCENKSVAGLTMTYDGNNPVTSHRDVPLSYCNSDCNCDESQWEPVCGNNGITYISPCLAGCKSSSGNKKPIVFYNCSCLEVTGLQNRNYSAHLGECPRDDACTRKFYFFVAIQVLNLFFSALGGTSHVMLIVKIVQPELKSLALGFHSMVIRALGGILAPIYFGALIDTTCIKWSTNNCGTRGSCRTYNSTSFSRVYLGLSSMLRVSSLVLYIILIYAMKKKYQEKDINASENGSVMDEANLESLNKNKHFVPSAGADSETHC

[2] = biological target: T1, Solute carrier organic anion transporter family member 1B1; assay: TP_TRANSPORTER: inhibition of E1S uptake (SN38 10 u M) in OATP1B1-expressing HEK293 cells; design: scale not given: the % may be the effect or the level left; details: hek293, 10 µM
[3] = biological target: T1, Solute carrier organic anion transporter family member 1B1; assay: TP_TRANSPORTER: uptake in OATP1B1-expressing HEK293 cells
[4] = biological target: T2, Solute carrier organic anion transporter family member 1B3 (Homo sapiens, UniProt Q9NPD5); assay: TP_TRANSPORTER: uptake of SN-38 at a concentration of 0.09uL/oocyte in Xenopus laevis oocytes
T2 sequence (Q9NPD5 whole entry): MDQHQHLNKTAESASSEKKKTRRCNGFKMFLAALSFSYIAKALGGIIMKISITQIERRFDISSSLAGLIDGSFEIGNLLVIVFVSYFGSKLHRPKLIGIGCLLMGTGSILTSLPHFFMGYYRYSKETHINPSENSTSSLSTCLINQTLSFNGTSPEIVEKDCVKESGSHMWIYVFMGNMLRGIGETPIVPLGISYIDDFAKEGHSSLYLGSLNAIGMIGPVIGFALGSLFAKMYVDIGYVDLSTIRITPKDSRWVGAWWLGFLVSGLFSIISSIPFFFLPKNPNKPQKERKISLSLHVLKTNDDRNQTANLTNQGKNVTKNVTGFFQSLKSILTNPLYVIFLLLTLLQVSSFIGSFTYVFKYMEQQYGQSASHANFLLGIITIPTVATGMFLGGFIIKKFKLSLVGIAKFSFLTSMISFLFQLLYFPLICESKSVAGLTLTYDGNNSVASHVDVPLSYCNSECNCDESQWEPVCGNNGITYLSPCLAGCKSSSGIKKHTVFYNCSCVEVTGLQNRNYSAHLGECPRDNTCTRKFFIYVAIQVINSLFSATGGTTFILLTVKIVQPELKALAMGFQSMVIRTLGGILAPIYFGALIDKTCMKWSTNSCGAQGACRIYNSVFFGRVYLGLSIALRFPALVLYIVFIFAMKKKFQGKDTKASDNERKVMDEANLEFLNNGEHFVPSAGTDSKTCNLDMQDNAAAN

[5] = biological target: T1, Solute carrier organic anion transporter family member 1B1; assay: TP_TRANSPORTER: uptake in OATP1B1-expressing HEK293 cell
[6] = biological target: T3, Solute carrier organic anion transporter family member 2B1 (Homo sapiens, UniProt O94956); assay: TP_TRANSPORTER: uptake of SN-38 at a concentration of 0.10uL/oocyte in Xenopus laevis oocytes
T3 sequence (O94956 whole entry): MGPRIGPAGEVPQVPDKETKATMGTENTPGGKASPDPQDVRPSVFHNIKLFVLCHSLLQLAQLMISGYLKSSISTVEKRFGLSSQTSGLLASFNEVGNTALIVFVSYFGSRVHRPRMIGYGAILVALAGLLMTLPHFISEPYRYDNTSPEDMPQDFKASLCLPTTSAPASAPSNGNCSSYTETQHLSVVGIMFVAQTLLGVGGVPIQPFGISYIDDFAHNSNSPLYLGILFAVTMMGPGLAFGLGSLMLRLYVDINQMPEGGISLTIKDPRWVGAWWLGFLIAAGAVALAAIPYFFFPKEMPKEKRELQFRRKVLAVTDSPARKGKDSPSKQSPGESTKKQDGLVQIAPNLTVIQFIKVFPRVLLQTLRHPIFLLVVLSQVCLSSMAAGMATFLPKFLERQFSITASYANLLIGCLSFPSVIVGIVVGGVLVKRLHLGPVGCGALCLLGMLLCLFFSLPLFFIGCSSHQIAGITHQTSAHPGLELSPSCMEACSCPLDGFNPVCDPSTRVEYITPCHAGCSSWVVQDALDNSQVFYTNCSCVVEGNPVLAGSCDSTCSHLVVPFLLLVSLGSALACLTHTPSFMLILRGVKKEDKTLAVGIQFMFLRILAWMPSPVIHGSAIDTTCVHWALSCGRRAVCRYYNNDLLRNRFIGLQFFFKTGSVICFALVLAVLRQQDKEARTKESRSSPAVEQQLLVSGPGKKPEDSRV

[7] = biological target: T1, Solute carrier organic anion transporter family member 1B1; assay: TP_TRANSPORTER: inhibition of E1S uptake (SN38 G 10 u M) in OATP1B1-expressing HEK293 cells; details: hek293, 10 µM

Activity [1]	Activity [2] [%]	Activity [3]	Activity [4]	Activity [5]	Activity [6]	Structure (SMILES)	Activity [7]
substrate [+]	50	substrate []	is not a substrate [-]	substrate [+]	is not a substrate [-]	CCc1c2c(nc3ccc(O)cc13)-c1cc3c(c(=O)n1C2)COC(=O)[C@]3(O)CC [7-ETHYL-10-HYDROXYCAMPTOTHECIN]	
				is not a substrate [-]		CCc1c2c(nc3ccc(OC(=O)N4CCC(N5CCCCC5)CC4)cc13)-c1cc3c(c(=O)n1C2)COC(=O)[C@]3(O)CC [IRINOTECAN]	

Structure (SMILES)	Activity [1]	Activity [2] [%]	Activity [3]	Activity [4]	Activity [5]	Activity [6]	Activity [7]
CCc1c2c(nc3ccc(OC[C@@H]4O[C@H](C(=O)O)[C@@H](O)[C@H](O)[C@H]4O)cc13)-c1cc3c(c(=O)n1C2)COC(=O)[C@]3(O)CC					is not a substrate [-]		is not an inhibitor [-]
